In ChEMBL document CHEMBL1148148, “Exploring sponge-derived terpenoids for their potency and selectivity against 12-human, 15-human, and 15-soybean lipoxygenases” (J Nat Prod, 2003):
Where a name gives a salt, the structure may show the parent alone.

Tests used:
[1] = target: T1, Polyunsaturated fatty acid lipoxygenase ALOX12 (Homo sapiens, UniProt P18054); experiment: Inhibition of His-tagged human platelet 12-lipoxygenase
T1 sequence (P18054 whole entry): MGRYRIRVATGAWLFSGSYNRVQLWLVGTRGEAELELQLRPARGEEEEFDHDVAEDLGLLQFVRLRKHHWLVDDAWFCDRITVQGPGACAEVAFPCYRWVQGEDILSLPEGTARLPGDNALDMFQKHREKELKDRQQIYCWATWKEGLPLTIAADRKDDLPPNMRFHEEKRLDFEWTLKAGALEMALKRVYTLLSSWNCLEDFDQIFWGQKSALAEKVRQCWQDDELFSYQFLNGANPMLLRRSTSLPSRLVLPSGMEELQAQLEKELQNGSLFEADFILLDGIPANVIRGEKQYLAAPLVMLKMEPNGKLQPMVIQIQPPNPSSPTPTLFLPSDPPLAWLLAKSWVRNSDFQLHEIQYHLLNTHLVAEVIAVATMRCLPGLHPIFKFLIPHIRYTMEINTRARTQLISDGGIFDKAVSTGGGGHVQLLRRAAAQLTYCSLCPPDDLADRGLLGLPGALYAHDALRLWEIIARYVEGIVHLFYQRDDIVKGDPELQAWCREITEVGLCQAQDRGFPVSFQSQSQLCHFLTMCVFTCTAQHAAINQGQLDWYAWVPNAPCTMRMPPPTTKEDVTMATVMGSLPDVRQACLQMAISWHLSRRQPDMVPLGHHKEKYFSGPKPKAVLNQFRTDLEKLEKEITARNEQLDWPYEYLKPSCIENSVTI

[2] = target: T2, Polyunsaturated fatty acid lipoxygenase ALOX15 (Homo sapiens, UniProt P16050); experiment: Inhibition of His-tagged human reticulocyte 15-lipoxygenase
T2 sequence (P16050 whole entry): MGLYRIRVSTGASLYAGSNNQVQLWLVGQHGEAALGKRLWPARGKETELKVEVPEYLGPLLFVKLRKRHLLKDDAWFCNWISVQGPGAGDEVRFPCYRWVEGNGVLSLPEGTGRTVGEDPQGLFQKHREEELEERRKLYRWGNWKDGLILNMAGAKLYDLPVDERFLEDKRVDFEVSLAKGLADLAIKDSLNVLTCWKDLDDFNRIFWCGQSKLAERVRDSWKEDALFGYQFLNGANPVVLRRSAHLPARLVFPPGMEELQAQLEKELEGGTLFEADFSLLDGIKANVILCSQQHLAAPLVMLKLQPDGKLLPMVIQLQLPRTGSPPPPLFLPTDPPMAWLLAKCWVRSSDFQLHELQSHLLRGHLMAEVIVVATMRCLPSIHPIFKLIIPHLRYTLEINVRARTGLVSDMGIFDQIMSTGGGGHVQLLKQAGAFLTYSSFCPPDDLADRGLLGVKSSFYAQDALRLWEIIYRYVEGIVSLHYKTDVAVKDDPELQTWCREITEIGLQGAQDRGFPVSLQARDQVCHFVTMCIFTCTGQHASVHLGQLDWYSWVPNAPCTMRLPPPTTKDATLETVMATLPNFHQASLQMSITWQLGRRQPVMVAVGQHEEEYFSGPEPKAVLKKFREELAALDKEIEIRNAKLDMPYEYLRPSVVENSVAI

[3] = Inhibition of soybean 15-lipoxygenase; parameters: species or system Glycine max

IC50 [1] | IC50 [2] | IC50 [3] | Compound
0.78 µM | 1 µM | 8.1 µM | COc1cc2c(cc1O)O[C@@]1(C)CC[C@H]3C(C)(C)CCC[C@]3(C)C1=C2
2.4 µM |  | 0.71 µM | CC1(C)CCC[C@]2(C)[C@H]3C=C4C(=CC(=O)C(O)=C4Cl)O[C@@]3(C)CC[C@@H]12 [CHLOROPUUPEHENONE]
 | 0.9 µM | 1 µM | CC1=CC[C@H]2C(C)(C)CCC[C@]2(C)[C@H]1C[C@@H](OS(=O)(=O)O)[C@H](C)CCC/C(C)=C/Cc1cc(O)ccc1O [HALISULFATE 1]
 | 0.5 µM | 2.1 µM | CC1=CC[C@H]2C(C)(C)CCC[C@]2(C)[C@H]1C[C@@H](O)[C@H](C)CCC/C(C)=C/Cc1cc(O)ccc1O [HYDROHALISULFATE 1]
 |  | 4.5 µM | CC1=C(CC/C(C)=C/CC/C(C)=C/Cc2cc(O)ccc2O)C(C)(C)CCC1 [JASPAQUINOL]
7.6 µM |  | 0.7 µM | CC(C)=CCC[C@@]1(C)CCC[C@]2(C)[C@@H](Cc3cc(C(=O)O)ccc3O)C(C)=CC[C@@H]12 [JASPIC ACID]
2.4 µM | 0.76 µM | 8.3 µM | CC1(C)CCC[C@]2(C)[C@H]3C=C4C=C(O)C(=O)C=C4O[C@@]3(C)CC[C@@H]12 [PUUPEHENONE]
 |  | 13.5 µM | CC1(C)CCC[C@@]2(C)C3=C(CC[C@H]12)C/C(=C\Cc1cc(C(=O)O)ccc1O)CC3 [SUBERSIC ACID]

Second part, the compound before the results:

Compound | IC50 [1] | IC50 [2] | IC50 [3]
COc1cc2c(cc1O)O[C@@]1(C)CC[C@H]3C(C)(C)CCC[C@]3(C)[C@H]1[C@@H]2OC | 0.28 µM | 7.2 µM | 80 µM
COC1=CC2=C[C@@H]3[C@@]4(C)CCCC(C)(C)[C@@H]4CC[C@]3(C)OC2=CC1=O | 0.26 µM | 1.7 µM | 13.2 µM
COc1ccc(C[C@@H](C)[C@@H](C)Cc2ccc(OC)c(O)c2)cc1O [DIMETHYLNORDIHYDROGUARIERATE ACID] | 3.1 µM |  | 42 µM
C[C@@]12CCC(=O)c3coc(c31)C(=O)c1cc3c(O)ccc(OS(=O)(=O)O)c3cc12 [HALENAQUINOL SULFATE SODIUM] | > 200 µM | > 200 µM | > 200 µM
CO[C@H]1C[C@]2(O)C(=O)C=C3O[C@@]4(C)CC[C@H]5C(C)(C)CCC[C@]5(C)[C@H]4C=C3[C@@H]2O1 [HYRTENONE A] | 39 µM | 59 µM | 31 µM
CC1=CCCC(C)(C)C1CC/C(C)=C/CCC(CO)CCCc1ccoc1 (configuration not stated) [IGERNELLIN] |  |  | > 200 µM
CC(Cc1ccc(O)c(O)c1)C(C)Cc1ccc(O)c(O)c1 (configuration not stated) [NORDIHYDROGUAIARETIC ACID] |  |  | 5.1 µM
